Consider eight molecules from patent US20210154372A1, “MEDICAL DEVICE WITH DRUG-ELUTING COATING AND INTERMEDIATE LAYER” (C.R. Bard, Inc., priority 2017, published 2021).

A word on the log P: it is the decadic logarithm of the partition coefficient of the neutral form, usually between octanol and water.

The conditions of series [1]: octanol/water; cited from earlier work.
Series [2] is described as follows: stability of additive with paclitaxel under ethylene oxide sterilization, heating and aging. The note with it: reacted with paclitaxel.
The subject of series [3] is tissues at the target site. Nature of the series: drug absorption by tissue after 0.2-2 minute deployment of coated balloon. Type of series: in vivo. The note with it: coating with paclitaxel, after 0.2-2 minutes of deployment.
Series [4] has as its system Serum albumin. The note with it: cited from earlier work.
The conditions of series [5]: BSA added; cited from earlier work.

For `OC[C@@H](O)[C@@H](O)[C@H](O)[C@@H](O)CO` [sorbitol], the “log P” value in series [1] is on record as −4.67.
On to `O=C(O)c1ccccc1` [benzoic acid], for which the “stability under ethylene oxide sterilization, heating, and aging process” value in series [2] is recorded as “not stable”.
In the case of `O=C1O[C@H](CO)[C@@H](O)[C@H](O)[C@H]1O` [gluconolactone], the “drug absorption by tissue” value in series [3] is recorded as “unexpectedly high”.
On to `CO[C@H]1C[C@@H]2CC[C@@H](C)[C@@](O)(O2)C(=O)C(=O)N2CCCC[C@H]2C(=O)O[C@H]([C@H](C)C[C@@H]2CC[C@@H](O)[C@H](OC)C2)CC(=O)[C@H](C)/C=C(\C)[C@@H](O)[C@@H](OC)C(=O)[C@H](C)C[C@H](C)/C=C/C=C/C=C/1C` [rapamycin], for which the protein bound in series [4] is on record as 92%. The “share of protein binding that is to albumin” value in series [4] (primarily to albumin) is 97%.
PEG-20 sorbitan monolaurate [Tween 20]: the “log P” value in series [1] is reported as “about 3.0”.
For the molecule `O=C1O[C@H](CO)[C@@H](O)[C@H]1O` [ribonic acid lactone], in series [3], the “drug absorption by tissue” value was “unexpectedly high”.
As for `COc1ccc(O)c(C(C)(C)C)c1` [Butylated hydroxyanisole], the “log P” value in series [1] is given as 1.31.
As to `CC(=O)O[C@H]1C(=O)[C@@]2(C)[C@H]([C@H](OC(=O)c3ccccc3)[C@]3(O)C[C@H](OC(=O)[C@H](O)[C@@H](NC(=O)c4ccccc4)c4ccccc4)C(C)=C1C3(C)C)[C@]1(OC(C)=O)CO[C@@H]1C[C@@H]2O` [paclitaxel], in series [5], the “increase of solubility in PBS with the addition of BSA” value was “over 20 fold”.
